Our source for the pEC50 values is patent US11746100B2 (GLOBAL BLOOD THERAPEUTICS, INC., priority 2020, dated 2023).

The target of the test is T1, human ferroportin (Homo sapiens, UniProt Q9NP59).
T1 construct: luciferase reporter (read with the Nano-Glo Luciferase Assay System); expressed in transfected cells; host or cells: CHO cells, stably transfected, expression induced with doxycycline
T1 sequence (Q9NP59 1-571): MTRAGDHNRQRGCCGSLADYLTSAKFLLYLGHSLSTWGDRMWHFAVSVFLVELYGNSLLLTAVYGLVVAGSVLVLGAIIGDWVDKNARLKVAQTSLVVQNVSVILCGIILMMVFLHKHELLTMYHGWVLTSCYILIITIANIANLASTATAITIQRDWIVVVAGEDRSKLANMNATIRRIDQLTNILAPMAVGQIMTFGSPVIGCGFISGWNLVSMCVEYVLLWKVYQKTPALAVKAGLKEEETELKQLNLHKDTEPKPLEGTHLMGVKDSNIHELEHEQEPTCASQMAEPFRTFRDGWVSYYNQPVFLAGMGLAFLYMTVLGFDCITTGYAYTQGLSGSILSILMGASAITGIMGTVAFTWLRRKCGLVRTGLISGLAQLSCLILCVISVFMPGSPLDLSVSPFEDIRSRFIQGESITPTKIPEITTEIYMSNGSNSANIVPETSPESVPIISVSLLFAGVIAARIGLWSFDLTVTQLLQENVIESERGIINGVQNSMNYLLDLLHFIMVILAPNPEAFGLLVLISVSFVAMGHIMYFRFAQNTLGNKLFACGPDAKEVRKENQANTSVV
As to the kind of experiment: Biological in-vitro ferroportin internalization assay (luciferase reporter). The note with it: average pEC50; stably-transfected CHO cell line expressing human ferroportin tagged to a luciferase reporter; 6 h incubation with test compound. It counts as cell-based. The method in brief:
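Stably transfected CHO cells expressing luciferase-tagged human ferroportin, plated 24 h with ferric ammonium citrate and induced with doxycycline for 24 h. Compounds incubated 6 h, then luciferase activity measured by Nano-Glo; average pEC50 reported.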
`COc1ccnc(-c2nc3c(c(N(C)CC(=O)NCCO)n2)CCC3)c1` [Compound 133, N-(2-hydroxyethyl)-2-{[2-(4-methoxypyridin-2-yl)-5H,6H,7H-cyclopenta[d]pyrimidin-4-yl](methyl)amino}acetamide] registered a pEC50 of 7.
With `C[C@H](O)COc1ccnc(-c2nc3c(c(N(C)CC(=O)NC(C)(C)C)n2)CCC3)c1` [Compound 370, N-tert-butyl-2-[(2-{4-[(2S)-2-hydroxypropoxy]pyridin-2-yl}-5H,6H,7H-cyclopenta[d]pyrimidin-4-yl)(methyl)amino]acetamide] the figure was 8.2.
As for `CN(CC(=O)Nc1ccc(F)cc1)c1nc(-c2cc3cnn(C)c3cn2)nc2c1CCC2` [Compound 313, N-(4-fluorophenyl)-2-[methyl(2-{1-methyl-1H-pyrazolo[3,4-c]pyridin-5-yl}-5H,6H,7H-cyclopenta[d]pyrimidin-4-yl)amino]acetamide], the figure is 7.3; as for `c1ccc(-c2nc3c(c(N4CCCc5ccccc54)n2)CCC3)nc1` [Compound 76, 1-[2-(pyridin-2-yl)-5H,6H,7H-cyclopenta[d]pyrimidin-4-yl]-1,2,3,4-tetrahydroquinoline], 6.
`COc1cnc(NC(=O)CN(C)c2nc(-c3cc(OCCO)ccn3)nc3c2CCC3)nc1` [Compound 295, 2-({2-[4-(2-hydroxyethoxy)pyridin-2-yl]-5H,6H,7H-cyclopenta[d]pyrimidin-4-yl}(methyl)amino)-N-(5-methoxypyrimidin-2-yl)acetamide] registered a pEC50 of 7.
As for `CN(CC(=O)NC(C)(C)C)c1nc(-c2cc(OCCn3cnnn3)ccn2)nc2c1CCC2` [Compound 466, N-tert-butyl-2-[methyl(2-{4-[2-(1H-1,2,3,4-tetrazol-1-yl)ethoxy]pyridin-2-yl}-5H,6H,7H-cyclopenta[d]pyrimidin-4-yl)amino]acetamide], the figure is 7.9.
With `CN(CC(=O)N1CCCC1(C)C)c1nc(-c2cc(OCCO)ccn2)nc2c1CCC2` [Compound 368, 1-(2,2-dimethylpyrrolidin-1-yl)-2-({2-[4-(2-hydroxyethoxy)pyridin-2-yl]-5H,6H,7H-cyclopenta[d]pyrimidin-4-yl}(methyl)amino)ethan-1-one] the figure was 7.8.
As for `CN(CC(=O)Nc1cccc(F)c1)c1nc(-c2cn(C)cn2)nc2c1CCC2` [Compound 271, N-(3-fluorophenyl)-2-{methyl[2-(1-methyl-1H-imidazol-4-yl)-5H,6H,7H-cyclopenta[d]pyrimidin-4-yl]amino}acetamide], the figure is 7.4.
In turn, `CN(CC(=O)NC(C)(C)C)c1nc(-c2cc(OCCN3C[C@H]4C[C@@H]3CO4)ccn2)nc2c1CCC2` [Compound 462, N-tert-butyl-2-{methyl[2-(4-{2-[(1R,4R)-2-oxa-5-azabicyclo[2.2.1]heptan-5-yl]ethoxy}pyridin-2-yl)-5H,6H,7H-cyclopenta[d]pyrimidin-4-yl]amino}acetamide] returned a pEC50 of 8.4.
As for `CN(CC(=O)NC(C)(C)C)c1nc(-c2cc(OCCN3CC[C@@H](F)C3)ccn2)nc2c1CCC2` [Compound 473, N-tert-butyl-2-{[2-(4-{2-[(3R)-3-fluoropyrrolidin-1-yl]ethoxy}pyridin-2-yl)-5H,6H,7H-cyclopenta[d]pyrimidin-4-yl](methyl)amino}acetamide], the figure is 8.3; as for `Cc1ncc(NC(=O)CN(C)c2nc(-c3cc(OCCO)ccn3)nc3c2CCC3)cn1` [Compound 291, 2-({2-[4-(2-hydroxyethoxy)pyridin-2-yl]-5H,6H,7H-cyclopenta[d]pyrimidin-4-yl}(methyl)amino)-N-(2-methylpyrimidin-5-yl)acetamide], 7.3; as for `CCN(CC(=O)NC(C)(C)C)c1nc(-c2ccccn2)nc2c1CCC2` [Compound 36, N-tert-butyl-2-{ethyl[2-(pyridin-2-yl)-5H,6H,7H-cyclopenta[d]pyrimidin-4-yl]amino}acetamide], 7.3.
With `CN(CC(=O)NC(C)(C)C)c1nc(-c2cc(OCC(C)(C)O)ccn2)nc2c1CCC2` [Compound 174, N-tert-butyl-2-({2-[4-(2-hydroxy-2-methylpropoxy)pyridin-2-yl]-5H,6H,7H-cyclopenta[d]pyrimidin-4-yl}(methyl)amino)acetamide], the pEC50 came out at 8.2.
With `CN(Cc1ncccn1)c1nc(-c2ccccn2)nc2c1CCC2` [Compound 81, N-methyl-2-(pyridin-2-yl)-N-[(pyrimidin-2-yl)methyl]-5H,6H,7H-cyclopenta[d]pyrimidin-4-amine] the figure was 6.8.
With `CN(CC(=O)NC1(C)CCC1)c1nc(-c2cc(OCCO)ccn2)nc2c1CCC2` [Compound 376, 2-({2-[4-(2-hydroxyethoxy)pyridin-2-yl]-5H,6H,7H-cyclopenta[d]pyrimidin-4-yl}(methyl)amino)-N-(1-methylcyclobutyl)acetamide] the figure was 8; with `CCNC(=O)CN(C)c1nc(-c2cc(OCC3(O)CCOCC3)ccn2)nc2c1CCC2` [Compound 447, N-ethyl-2-[(2-{4-[(4-hydroxyoxan-4-yl)methoxy]pyridin-2-yl}-5H,6H,7H-cyclopenta[d]pyrimidin-4-yl)(methyl)amino]acetamide], 7.6; with `CCNC(=O)CN(C)c1nc(-c2cc(OCC(O)(CC)CC)ccn2)nc2c1CCC2` [Compound 442, N-ethyl-2-({2-[4-(2-ethyl-2-hydroxybutoxy)pyridin-2-yl]-5H,6H,7H-cyclopenta[d]pyrimidin-4-yl}(methyl)amino)acetamide], 8.
With `COc1ccnc(-c2nc3c(c(N(C)CC(=O)N[C@H]4CCOC4)n2)CCC3)c1` [Compound 371, 2-{[2-(4-methoxypyridin-2-yl)-5H,6H,7H-cyclopenta[d]pyrimidin-4-yl](methyl)amino}-N-[(3S)-oxolan-3-yl]acetamide] the figure was 7.5; with `COCC(C)(C)NC(=O)CN(C)c1nc(-c2cc(OC)ccn2)nc2c1CCC2` [Compound 139, N-(1-methoxy-2-methylpropan-2-yl)-2-{[2-(4-methoxypyridin-2-yl)-5H,6H,7H-cyclopenta[d]pyrimidin-4-yl](methyl)amino}acetamide], 7.5.
For `CN(CC(=O)NC(C)(C)C)c1nc(-c2cc(OCCO)ccn2)nc2c1C(C)(C)CC2` [Compound 361, N-tert-butyl-2-({2-[4-(2-hydroxyethoxy)pyridin-2-yl]-5,5-dimethyl-5H,6H,7H-cyclopenta[d]pyrimidin-4-yl}(methyl)amino)acetamide], the pEC50 was determined as 8.1.
`Cc1ccc(NC(=O)CN(C)c2nc(-c3ccc(F)cn3)nc3c2CCC3)cn1` [Compound 298, 2-{[2-(5-fluoropyridin-2-yl)-5H,6H,7H-cyclopenta[d]pyrimidin-4-yl](methyl)amino}-N-(6-methylpyridin-3-yl)acetamide] registered a pEC50 of 6.1.
As for `COc1ccnc(-c2nc3c(c(N(C)CC(=O)NC4CCOC4)n2)CCC3)c1` (centres unmarked) [Compound 135, 2-{[2-(4-methoxypyridin-2-yl)-5H,6H,7H-cyclopenta[d]pyrimidin-4-yl](methyl)amino}-N-(oxolan-3-yl)acetamide], the pEC50 turned out to be 7.4.
As for `CN(CC(=O)NC1(C(F)(F)F)CC1)c1nc(-c2cc(OCC(C)(C)O)ccn2)nc2c1CCC2` [Compound 337, 2-({2-[4-(2-hydroxy-2-methylpropoxy)pyridin-2-yl]-5H,6H,7H-cyclopenta[d]pyrimidin-4-yl}(methyl)amino)-N-[1-(trifluoromethyl)cyclopropyl]aceta-mide], the figure is 7.4.
